PubChem BioAssay (NCI)
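Grown in 96-well plates, cells were treated for 48 hours with each compound at five concentrations. Insufficient inhibition: endpoint recorded as highest concentration tested. TGI is the concentration that stops growth completely.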

Legend:
Assay in all cases: NCI anticancer screen, dose series, 48 h
[1] = test system: K-562 leukemia
[2] = test system: DLD-1 colon
[3] = test system: HCT-116 colon
[4] = test system: SK-MEL-28 melanoma
[5] = test system: HOP-62 NSCLC
[6] = test system: OVCAR-3 ovarian
[7] = test system: OVCAR-5 ovarian
[8] = test system: U251 CNS
[9] = test system: TK-10 renal
[10] = test system: UO-31 renal
[11] = test system: HCT-15 colon
[12] = test system: EKVX NSCLC
[13] = test system: 786-0 renal
[14] = test system: HT29 colon
[15] = test system: DMS 114 small cell lung
[16] = test system: LOX IMVI melanoma
[17] = test system: NCI-H23 lung
[18] = test system: XF 498 CNS
[19] = test system: SNB-78 CNS
[20] = test system: SF-268 CNS
[21] = test system: SW-620 colon
[22] = test system: MOLT-4 leukemia
[23] = test system: SNB-75 CNS
[24] = test system: A549 NSCLC
[25] = test system: SNB-19 CNS
[26] = test system: LXFL 529 NSCLC
[27] = test system: NCI-H522 lung
[28] = test system: HOP-18 NSCLC
[29] = test system: RPMI-8226 leukemia
[30] = test system: HL-60(TB) leukemia
[31] = test system: COLO 205 colon
[32] = test system: A498 renal
[33] = test system: SN12C renal
[34] = test system: KM12 colon
[35] = test system: M19-MEL melanoma
[36] = test system: HCC-2998 colon
[37] = test system: NCI-H460 lung
[38] = test system: SR leukemia
[39] = test system: SF-295 CNS
[40] = test system: IGROV1 ovarian
[41] = test system: HOP-92 NSCLC
[42] = test system: OVCAR-4 ovarian
[43] = test system: NCI-H226 lung
[44] = test system: SF-539 CNS
[45] = test system: SK-MEL-2 melanoma
[46] = test system: MALME-3M melanoma
[47] = test system: RXF 393 renal
[48] = test system: OVCAR-8 ovarian
[49] = test system: ACHN renal
[50] = test system: UACC-257 melanoma
[51] = test system: RXF-631 renal
[52] = test system: KM20L2 colon
[53] = test system: M14 melanoma
[54] = test system: SK-OV-3 ovarian
[55] = test system: UACC-62 melanoma
[56] = test system: CAKI-1 renal
[57] = test system: SK-MEL-5 melanoma
[58] = test system: CCRF-CEM leukemia
[59] = test system: DMS 273 small cell lung

## CCOc1ccc(NC(=O)CC2C(=O)Nc3ccccc3S2(=O)=O)cc1 (configuration not stated)
[1]
  TGI: > 100 µM
[2]
  TGI: > 100 µM
[3]
  TGI: > 100 µM
[4]
  TGI: > 100 µM
[5]
  TGI: > 100 µM
[6]
  TGI: > 100 µM
[7]
  TGI: > 100 µM
[8]
  TGI: > 100 µM
[9]
  TGI: > 100 µM
[10]
  TGI: > 100 µM
[11]
  TGI: > 100 µM
[12]
  TGI: > 100 µM
[13]
  TGI: > 100 µM
[14]
  TGI: > 100 µM
[15]
  TGI: > 100 µM
[16]
  TGI: > 100 µM
[17]
  TGI: > 100 µM
[18]
  TGI: > 100 µM
[19]
  TGI: > 100 µM
[20]
  TGI: > 100 µM
[21]
  TGI: > 100 µM
[22]
  TGI: > 100 µM
[23]
  TGI: 43.2 µM
[24]
  TGI: > 100 µM
[25]
  TGI: > 100 µM
[26]
  TGI: > 100 µM
[27]
  TGI: > 100 µM
[28]
  TGI: > 100 µM
[29]
  TGI: > 100 µM
[30]
  TGI: > 100 µM
[31]
  TGI: > 100 µM
[32]
  TGI: > 100 µM
[33]
  TGI: > 100 µM
[34]
  TGI: > 100 µM
[35]
  TGI: > 100 µM
[36]
  TGI: > 100 µM
[37]
  TGI: > 100 µM
[38]
  TGI: > 100 µM
[39]
  TGI: > 100 µM
[40]
  TGI: > 100 µM
[41]
  TGI: 55.5 µM
[42]
  TGI: > 100 µM
[43]
  TGI: 90.3 µM
[44]
  TGI: > 100 µM
[45]
  TGI: > 100 µM
[46]
  TGI: > 100 µM
[47]
  TGI: > 100 µM
[48]
  TGI: > 100 µM
[49]
  TGI: > 100 µM
[50]
  TGI: > 100 µM
[51]
  TGI: > 100 µM
[52]
  TGI: > 100 µM

## CC(=O)O[C@H]1CC[C@@]2(C)C(=CC[C@@H]3C2CC[C@]2(C)Nc4nc5ccccc5cc4CC32)C1 (some centres not stated)
[1]
  TGI: 11.6 µM
[2]
  TGI: 15.6 µM
[3]
  TGI: 3.8 µM
[5]
  TGI: 26.7 µM
[6]
  TGI: 8.53 µM
[7]
  TGI: 26.9 µM
[8]
  TGI: 7.58 µM
[9]
  TGI: 18.1 µM
[53]
  TGI: 5.03 µM
[10]
  TGI: 16.9 µM
[11]
  TGI: 8.01 µM
[12]
  TGI: 18.8 µM
[13]
  TGI: 10.7 µM
[14]
  TGI: 3.68 µM
[15]
  TGI: 18 µM
[17]
  TGI: 26.6 µM
[18]
  TGI: 18.5 µM
[19]
  TGI: 21.1 µM
[20]
  TGI: 14.9 µM
[21]
  TGI: 7.2 µM
[22]
  TGI: 11.7 µM
[23]
  TGI: 8.68 µM
[54]
  TGI: 8.4 µM
[24]
  TGI: 12.9 µM
[25]
  TGI: 7.89 µM
[26]
  TGI: 12 µM
[27]
  TGI: 24.1 µM
[28]
  TGI: 13.5 µM
[29]
  TGI: 42.1 µM
[30]
  TGI: 17.7 µM
[31]
  TGI: 20.9 µM
[32]
  TGI: 18.9 µM
[33]
  TGI: 20.1 µM
[34]
  TGI: 12.9 µM
[35]
  TGI: 12.2 µM
[36]
  TGI: 10.8 µM
[37]
  TGI: 17.5 µM
[39]
  TGI: 13.9 µM
[55]
  TGI: 22.9 µM
[40]
  TGI: 30 µM
[42]
  TGI: 21.4 µM
[43]
  TGI: 8.25 µM
[56]
  TGI: 18.4 µM
[44]
  TGI: 12 µM
[57]
  TGI: 15.4 µM
[45]
  TGI: 31.7 µM
[58]
  TGI: 14 µM
[46]
  TGI: 21.7 µM
[47]
  TGI: 5.09 µM
[48]
  TGI: 10.9 µM
[49]
  TGI: 16.9 µM
[50]
  TGI: 13 µM
[59]
  TGI: 13.8 µM
[52]
  TGI: 3.66 µM

## C[C@]12CCC3[C@@H](CC[C@@H]4c5nonc5CC[C@]34C)C1CC[C@@H]2O (some centres not stated)
[1]
  TGI: > 100 µM
[2]
  TGI: 69.4 µM
[4]
  TGI: 70 µM
[5]
  TGI: > 100 µM
[6]
  TGI: 62.1 µM
[7]
  TGI: > 100 µM
[8]
  TGI: 45.7 µM
[9]
  TGI: > 100 µM
[53]
  TGI: 53 µM
[11]
  TGI: 83.5 µM
[12]
  TGI: 75.5 µM
[13]
  TGI: 75.5 µM
[14]
  TGI: > 100 µM
[15]
  TGI: 71.2 µM
[16]
  TGI: 41.1 µM
[17]
  TGI: > 100 µM
[18]
  TGI: 53.7 µM
[19]
  TGI: > 100 µM
[20]
  TGI: > 100 µM
[21]
  TGI: > 100 µM
[22]
  TGI: 55.1 µM
[23]
  TGI: 77.8 µM
[54]
  TGI: 84.9 µM
[24]
  TGI: 85.2 µM
[25]
  TGI: > 100 µM
[26]
  TGI: > 100 µM
[27]
  TGI: 50.9 µM
[28]
  TGI: > 100 µM
[29]
  TGI: 38.9 µM
[30]
  TGI: 43.9 µM
[31]
  TGI: 71.3 µM
[32]
  TGI: 62.7 µM
[33]
  TGI: 53.2 µM
[34]
  TGI: > 100 µM
[35]
  TGI: > 100 µM
[36]
  TGI: > 100 µM
[37]
  TGI: 71.7 µM
[39]
  TGI: > 100 µM
[55]
  TGI: > 100 µM
[40]
  TGI: > 100 µM
[41]
  TGI: 57.7 µM
[42]
  TGI: 82.4 µM
[43]
  TGI: > 100 µM
[56]
  TGI: 52.6 µM
[44]
  TGI: 32.3 µM
[57]
  TGI: 41 µM
[45]
  TGI: 48.3 µM
[58]
  TGI: 54.8 µM
[46]
  TGI: 69.3 µM
[47]
  TGI: 69.6 µM
[48]
  TGI: > 100 µM
[49]
  TGI: 66.3 µM
[50]
  TGI: 46.9 µM
[51]
  TGI: > 100 µM
[59]
  TGI: 60.8 µM
[52]
  TGI: > 100 µM
